Our source for the ED (2-fold shift) and IC50 values is patent US6083955A, “Arylethenesulfonamide derivatives and drug composition containing the same” (Yamanouchi Pharmaceutical Co., Ltd., priority 1995, dated 2000).

Each structure is given as a SMILES string. Like-named read-outs stand apart in the source and are kept apart here.

The subject of test [1] is big ET-1-induced pressor responses. The test is described as follows: Test on Inhibition of Big ET-1-induced Pressor Responses in Pithed Rats. The class given is in vivo, male Wistar rats. The conditions noted are these: Rattus norvegicus, 0.5 h, read-out: DR2. The method, then:
(3) Test on Inhibition of Big ET-1-induced Pressor Responses in Pithed Rats
Male Wistar rats (body weight: […]) were anesthetized by sodium pentobarbital (60 mg/kg, i.p.) and a cannula for artificial ventilation was inserted into a trachea. Spinal cord was broken by inserting a rod made of steel thereinto and then the rat was connected to an artificial respirator. A catheter for measuring the systemic arterial blood pressure was inserted into a carotid artery while another catheter for administering big ET-1 was inserted into a femoral vein. After 30 minutes from the oral administration of a test compound at doses of 0.1 to 10 mg/kg, the rat was pithed and then big ET-1 was intravenously administered at doses of 0.1 to 3.2 nmol/kg in a cumulative manner. Activity of the test compound was evaluated by the dose (DR2 value) whereby the dose-response curve of pressor responses by big ET-1 to the right hand direction to an extent of two-fold.

The next test has as its target T1, human ETA receptor (Homo sapiens, UniProt P25101).
T1 sequence (P25101 21-427): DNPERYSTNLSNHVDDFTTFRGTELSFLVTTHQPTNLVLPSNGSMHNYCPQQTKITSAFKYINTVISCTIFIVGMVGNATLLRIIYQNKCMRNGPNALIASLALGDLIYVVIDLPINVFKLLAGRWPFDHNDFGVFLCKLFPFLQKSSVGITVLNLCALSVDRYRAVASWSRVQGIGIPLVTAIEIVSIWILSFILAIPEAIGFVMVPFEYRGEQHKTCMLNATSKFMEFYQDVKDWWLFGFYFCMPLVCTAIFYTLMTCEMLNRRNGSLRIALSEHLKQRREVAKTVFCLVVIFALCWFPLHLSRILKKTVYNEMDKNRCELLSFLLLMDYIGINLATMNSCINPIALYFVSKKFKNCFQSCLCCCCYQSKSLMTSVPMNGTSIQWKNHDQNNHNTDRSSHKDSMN
In words: Test on Inhibition of Binding of Endothelin (ET-1) to Human ETA Receptor. How it is done:
(1) Test on Inhibition of Binding of Endothelin (ET-1) to Human ETA Receptor
cDNA of human ETA receptor was obtained from mRNA of human lung by means of an RT-PCR and then transferred into pEF-BOS, a vector for expression, to prepare plasmid. The prepared plasmid was added to a culture of COS-1 cells (cell strain derived from renal cells of African green monkey) with DEAE-dextran and cDNA of human ETA was transfected to COS-1 cells. Then it was incubated for three days in a conventional DMEM (containing 10% of FBS) and the COS-1 cells recovered therefrom were suspended in a hypotonic buffer (10 mM Tris-HCl and 5 mM EDTA; pH 7.4) followed by homogenizing the cells using a Polytron. The suspension in which the cells were homogenized was subjected to an ultracentrifugation (100,000G for 30 minutes at 4° C.), the resulting precipitate (cell membrane fraction) was re-suspended in a Tris buffer (50 mM Tris-HCl and 10 mM MgCl2; pH 7.4) and the suspension was preserved by freezing at -80° C. (protein amount: about 1 mg/ml).
In conducting the experiment of binding the receptor, the frozen cell membrane sample was melted and resuspended in an incubation buffer (50 mM Tris-HCl, 10 mM MgCl2 and 0.01% bovine serum albumin; pH 7.4). The membrane suspension (200 μl) containing 1.25 μg as a membrane protein, 25 μl of an incubation buffer containing a test compound in various concentrations and 25 μl of [^125 I] ET-1 (specific activity: 2,200 Ci/mM; final concentration: […]) were incubated together at 25° C. for three hours and then filtered through a glass fiber filter using a Brandel cell harvester. Measurement of radioactivity on the glass fiber filter was conducted by means of a gamma-counter (counting efficiency: 81%). Nonspecific binding was determined by the use of a test buffer containing 0.1 μM of ET-1. Inhibiting activity of the test compound to [^125 I] ET-1 was calculated as a concentration (IC50) necessary for inhibiting 50% of the specific binding.

The mark [2] stands for this setting: oral administration 30 minutes before pithing, dose shifting big ET-1 pressor dose-response curve two-fold to the right.
[3] abbreviates: inhibition of [^125 I] ET-1 specific binding, COS-1 cell membranes expressing human ETA, pH 7.4, 25° C., three hours, read-out: IC50.

Regarding `COc1ccccc1Oc1c(NS(=O)(=O)c2ccc(C(C)(C)C)cc2)nc(-c2ncccn2)nc1OCCO` [Comparative Compound, Bosentan, reference compound], the ED (2-fold shift) in test [1] (setting [2]) is 32 mg/kg.
The term IC50 denotes the midpoint of a concentration-inhibition curve. `COc1ccccc1Oc1c(NS(=O)(=O)C=Cc2ccccc2)nc(-c2ncccn2)nc1OCCO` [Example 1, potassium N-[6-(2-hydroxyethoxy)-5-(2-methoxyphenoxy)-2-(2-pyrimidinyl)-4-pyrimidinyl]-2-phenylethenesulfonamidate]: on human ETA receptor (setting [3]), the IC50 stood at 1.6 nM.
Take `COc1ccccc1Oc1c(NS(=O)(=O)C=Cc2ccccc2)nc(-c2ncccn2)nc1OC` [Example 2, N-[6-methoxy-5-(2-methoxyphenoxy)-2-(2-pyrimidinyl)-4-pyrimidinyl]-2-phenylethenesulfonamide]: on human ETA receptor, the IC50 is 3.1 nM. Moreover, in test [1] (po), the ED (2-fold shift) is 0.61 mg/kg.
For the compound `COCCOc1nc(-c2ncccn2)nc(NS(=O)(=O)C=Cc2ccccc2)c1Oc1ccccc1OC` [Example 6, N-[6-(2-Methoxyethoxy)-5-(2-methoxyphenoxy)-2-(2-pyrimidinyl)-4-pyrimidinyl]-2-phenylethenesulfonamide], the IC50 on human ETA receptor (setting [3]) is 4.8 nM.
Turning to `COc1ccccc1Oc1c(NS(=O)(=O)C=Cc2ccccc2)nc(-c2ncccn2)nc1OCCF` [Example 8, N-[6-(2-fluoroethoxy)-5-(2-methoxyphenoxy)-2-(2-pyrimidinyl)-4-pyrimidinyl]-2-phenylethenesulfonamide], at human ETA receptor (setting [3]), the IC50 stood at 2.9 nM.
Still for that read-out and setting: with `C#CCOc1nc(-c2ncccn2)nc(NS(=O)(=O)C=Cc2ccccc2)c1Oc1ccccc1OC` [Example 13, N-[6-(2-propynyloxy)-5-(2-methoxyphenoxy)-2-(2-pyrimidinyl)-4-pyrimidinyl]-2-phenylethenesulfonamide] the figure was 5.5 nM.
Regarding `COc1cc(OC)cc(-c2nc(NS(=O)(=O)C=Cc3ccccc3)c(Oc3ccccc3OC)c(OC)n2)c1` [Example 22, N-[2-(3,5-Dimethoxyphenyl)-6-methoxy-5-(2-methoxyphenoxy)-4-pyrimidinyl]-2-phenylethenesulfonamide], the IC50 at human ETA receptor (setting [3]) was determined as 9.5 nM.
For the compound `COc1ccccc1Oc1c(NS(=O)(=O)C=Cc2ccccc2)nc(-c2ccncc2)nc1OC` [Example 27, N-[6-Methoxy-5-(2-methoxyphenoxy)-2-(4-pyridyl)-4-pyrimidinyl]-2-phenylethenesulfonamide], the IC50 at human ETA receptor (setting [3]) is 5.9 nM.
Regarding `COc1ccccc1Oc1c(NS(=O)(=O)C=Cc2ccccc2)nc(-c2ccsc2)nc1OC` [Example 32, N-[6-Methoxy-5-(2-methoxyphenoxy)-2-(3-thienyl)-4-pyrimidinyl]-2-phenylethenesulfonamide], the IC50 on human ETA receptor (setting [3]) turned out to be 5.1 nM.
With `COc1ccccc1Oc1c(NS(=O)(=O)C=Cc2ccccc2)nc(-c2csc(C)n2)nc1OC` [Example 33, N-[6-Methoxy-5-(2-methoxyphenoxy)-2-(2-methyl-4-thiazolyl)-4-pyrimidinyl]-2-phenylethenesulfonamide], on human ETA receptor (setting [3]), the IC50 came to 7.7 nM.
As to `COc1ccccc1Oc1c(NS(=O)(=O)C=Cc2ccccc2)nc(-c2ccoc2)nc1OC` [Example 34, N-[6-Methoxy-5-(2-methoxyphenoxy)-2-(3-furyl)-4-pyrimidinyl]-2-phenylethenesulfonamide], the IC50 on human ETA receptor (setting [3]) came out at 9.7 nM.
With `COc1ccccc1Oc1c(NS(=O)(=O)C(C)=Cc2ccccc2)nc(-c2ncccn2)nc1OC` [Example 37, N-[6-Methoxy-5-(2-methoxyphenoxy)-2-(2-pyrimidinyl)-4-pyrimidinyl]-1-methyl-2-phenylethenesulfonamide], the IC50 at human ETA receptor (setting [3]) worked out at 1.6 nM.
For the compound `CCC(=Cc1ccccc1)S(=O)(=O)Nc1nc(-c2ncccn2)nc(OC)c1Oc1ccccc1OC.[K]` [Example 38, Potassium N-[6-methoxy-5-(2-methoxyphenoxy)-2-(2pyrimidinyl)-4-pyrimidinyl]-1-ethyl-2-phenylethenesulfonamidate], the IC50 at human ETA receptor (setting [3]) was 3.3 nM. Further, in test [1] (po), the ED (2-fold shift) was determined as 0.65 mg/kg.
`COc1ccccc1Oc1c(NS(=O)(=O)C=Cc2ccc(C)cc2)nc(-c2ncccn2)nc1OC` [Example 39, N-[6-Methoxy-5-(2-methoxyphenoxy)-2-(2-pyrimidinyl)-4-pyrimidinyl]-2-(4-methylphenyl)ethenesulfonamide]: at human ETA receptor (setting [3]), the IC50 was determined as 2.8 nM.
Consider `COc1ccccc1Oc1c(NS(=O)(=O)C=Cc2cccs2)nc(-c2ncccn2)nc1OC` [Example 42, N-[6-Methoxy-5-(2-methoxyphenoxy)-2-(2-pyrimidinyl)-4-pyrimidinyl]-2-(2-thienyl)ethenesulfonamide], for which, at human ETA receptor (setting [3]), the IC50 was 1.5 nM. Besides, the ED (2-fold shift) in test [1] (setting [2]) came out at 1.85 mg/kg.
As to `COc1ccccc1Oc1c(NS(=O)(=O)C=Cc2ccc3ccccc3c2)nc(-c2ncccn2)nc1OC` [Example 45, N-[6-Methoxy-5-(2-methoxyphenoxy)-2-(2-pyrimidinyl)-4-pyrimidinyl]-2-(2-naphthyl)ethenesulfonamide], the IC50 at human ETA receptor (setting [3]) was determined as 4.4 nM.
For `COc1ccccc1Oc1c(NS(=O)(=O)C=Cc2ccccc2Cl)nc(-c2ncccn2)nc1OC` [Example 47, N-[6-Methoxy-5-(2-methoxyphenoxy)-2-(2-pyrimidinyl)-4-pyrimidinyl]-2-(2-chlorophenyl)ethenesulfonamide], the IC50 on human ETA receptor (setting [3]) was 3 nM.
